# Assay results taken from US7534894B2, “Biphenyloxy-acids” (Wyeth, priority 2003, dated 2009).
# Columns and labels:
# [1] = molecular target: T1, recombinant human plasminogen activator inhibitor-1 (PAI-1) (Homo sapiens, UniProt P05121); experiment: Primary Screen for the PAI-1 Inhibition (residual tPA activity, chromogenic substrate Spectrozyme-tPA); type: biochemical; conditions: 140 nM PAI-1, 70 nM tPA, pH 6.6; for inhibition at 25 µM: 25 μM test compound; for inhibition at 100 µM: 100 μM test compound
# T1 construct: purchased Molecular Innovations, Royal Oak, Mich
# Protocol: (§1) Test compounds are dissolved in DMSO at a final concentration of 10 mM, then diluted 101× in physiologic buffer. The inhibitory assay is initiated by the addition of the test compound (1-100 μM final concentration, maximum DMSO concentration of 0.2%) in a pH 6.6 buffer containing 140 nM recombinant human plasminogen activator inhibitor-1 (PAI-1; Molecular Innovations, Royal Oak, Mich.). Following a 1 hour incubation at room temperature, 70 nM of recombinant human tissue plasminogen activator (tPA) is added, and the combination of the test compound, PAI-1 and tPA is incubated for an additional 30 minutes. Following the second incubation, Spectrozyme-tPA (American Diagnostica, Greenwich, Conn.), a chromogenic substrate for tPA, is added and absorbance read at 405 nm at 0 and 60 minutes. Relative PAI-1 inhibition is equal to the residual tPA activity in the presence of the test compound and PAI-1. Control treatments include the complete inhibition of tPA by PAI-1 at the molar ratio employed (2:1), and the absence of any effect of the test compound on tPA alone.
# human PAI-1 = human PAI-1 (Homo sapiens, UniProt P05121); experiment: Antibody Assay for Determining IC50 of Inhibition of PAI-1 (active PAI-1 bound to tPA-coated plate, 33B8 antibody); type: binding; conditions: test compound incubated with human PAI-1 50 ng/ml, pH 7.5
# Protocol: This assay is based upon the non-SDS dissociable interaction between tPA and active PAI-1. Assay plates are initially coated with human tPA (10 μg/ml). Test compounds of the present invention are dissolved in DMSO at 10 mM, then diluted with physiologic buffer (pH 7.5) to a final concentration of 1-50 μM. Test compounds are incubated with human PAI-1 (50 ng/ml) for 15 minutes at room temperature. The tPA-coated plate is washed with a solution of 0.05% Tween 20 and 0. 1% BSA, then the plate is blocked with a solution of 3% BSA. An aliquot of the substituted biphenyloxy acid/PAI-1 solution is then added to the tPA-coated plate, incubated at room temperature for 1 hour, and washed. Active PAI-1 bound to the plate is assessed by adding an aliquot of a 1:1000 dilution of the 33B8 monoclonal antibody against human PAI-1, and incubating the plate at room temperature for 1 hour (Molecular Innovations, Royal Oak, Mich.). The plate is again washed, and a solution of goat anti-mouse IgG-alkaline phosphatase conjugate is added at a 1:50,000 dilution in goat serum. The plate is incubated 30 minutes at room temperature, washed, and a solution of alkaline phosphatase substrate is added. The plate is incubated 45 minutes at room temperature, and color development is determined at OD405nm. The quantitation of active PAI-1 bound to tPA at varying concentrations of the test compound is used-to determine the IC50. Results are analyzed using a logarithmic best-fit equation. The assay sensitivity is 5 ng/ml of human PAI-1 as determined from a standard curve ranging from 0-100 ng/ml.
# [2] = molecular target: T1, recombinant human plasminogen activator inhibitor-1 (PAI-1); experiment: Kinetic IC50: modification of the Primary Screen for the PAI-1 Inhibition; type: biochemical
# Protocol: as §1
# human PAI-1, sequence (P05121 24-402): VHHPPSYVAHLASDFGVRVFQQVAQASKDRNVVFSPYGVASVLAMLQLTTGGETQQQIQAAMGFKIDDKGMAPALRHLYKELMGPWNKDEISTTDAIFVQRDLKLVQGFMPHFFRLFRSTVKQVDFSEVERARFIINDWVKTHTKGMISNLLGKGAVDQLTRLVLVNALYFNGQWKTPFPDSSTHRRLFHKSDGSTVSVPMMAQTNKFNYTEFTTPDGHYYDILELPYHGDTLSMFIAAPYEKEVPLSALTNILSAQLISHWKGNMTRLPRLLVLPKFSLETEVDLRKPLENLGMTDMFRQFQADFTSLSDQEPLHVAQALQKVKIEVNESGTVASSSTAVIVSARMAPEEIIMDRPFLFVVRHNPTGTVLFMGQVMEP
# T1 sequence (P05121 24-402): as above
Compound,melting point,inhibition at 25 µM [1],inhibition at 100 µM [1],IC50 (human PAI-1),IC50 [2]
"CCCc1c(C(=O)NCc2ccc(-c3ccc(OCC(=O)O)cc3)cc2)cnn1-c1ccccc1 [Compound 2, ({4′-[({[1-phenyl-5-propyl-1H-pyrazol-4-yl]carbonyl}amino)methyl][1,1′-biphenyl]-4-yl}oxy)acetic acid]",190 to 192 °C,2%,66%,,
"CCCc1c(C(=O)NCc2ccc(-c3ccc(OCC(=O)O)c(Br)c3)cc2)cnn1-c1ccccc1 [Compound 3, {[3-bromo-4′-({[(1-phenyl-5-propyl-1H-pyrazol-4-yl)carbonyl]amino}methyl)[1,1′-biphenyl]-4-yl]oxy}acetic acid]",204 to 206 °C,47%,88%,37.5 µM,
"CCCCc1oc2ccccc2c1C(=O)NCc1ccc(-c2ccc(OCC(=O)O)c(Br)c2)cc1 [Compound 4, {[3-bromo-4′-({[(2-butyl-1-benzofuran-3-yl)carbonyl]amino}methyl)[1,1′-biphenyl]-4-yl]oxy}acetic acid]",175 to 190 °C,44%,82%,,
"CCCCc1oc2ccccc2c1C(=O)N(C)Cc1ccc(-c2ccc(OCc3nnn[nH]3)c(Br)c2)cc1 [Compound 6, N-{[3′-bromo-4′-(1H-tetraazol-5-ylmethoxy)-1,1′-biphenyl-4-yl]methyl}-2-butyl-N-methyl-1-benzofuran-3-carboxamide]",,42%,94%,10.8 µM,
"CCCCc1oc2ccccc2c1C(=O)N(C)Cc1ccc(-c2ccc(OCC(=O)O)c(Br)c2)cc1 [Compound 7, [(3-bromo-4′-{[[(2-butyl-1-benzofuran-3-yl)carbonyl](methyl)amino]methyl}-1,1′-biphenyl-4-yl)oxy]acetic acid]",72 to 78 °C,64%,100%,18.7 µM,
"CCCCc1oc2ccccc2c1C(=O)N(C)Cc1ccc(-c2ccc(OC(Cc3ccccc3)C(=O)O)c(Br)c2)cc1 (stereo not shown) [Compound 8, 2-[(3-bromo-4′-{[[(2-butyl-1-benzofuran-3-yl)carbonyl](methyl)amino]methyl}-1,1′-biphenyl-4-yl)oxy]-3-phenylpropanoic acid]",79 to 86 °C,55%,96%,20 µM,
"CN(Cc1ccc(-c2ccc(OCc3nnn[nH]3)c(Br)c2)cc1)C(=O)c1cn(C)c2ccccc12 [Compound 9, N-{[3′-bromo-4′-(1H-tetraazol-5-ylmethoxy)-1,1′-biphenyl-4-yl]methyl}-N,1-dimethyl-1H-indole-3-carboxamide]",239 °C,41%,81%,46.3 µM,
"CN(Cc1ccc(-c2ccc(OCc3nnn[nH]3)c(Br)c2)cc1)C(=O)c1cn(Cc2ccccc2)c2ccccc12 [Compound 10, 1-Benzyl-N-{[3′-bromo-4′-(1H-tetraazol-5-ylmethoxy)-1,1′-biphenyl-4-yl]methyl}-N-methyl-1H-indole-3-carboxamide]",,45%,76%,30 µM,
"CCCCc1oc2ccccc2c1C(=O)Nc1ccc(-c2ccc(OCC(=O)O)cc2)cc1 [Compound 13, [(4′-{[(2-butyl-1-benzofuran-3-yl)carbonyl]amino}[1,1′-biphenyl]-4-yl)oxy]acetic acid]",225 to 227 °C,25%,85%,,
"CCCCc1oc2ccccc2c1C(=O)Nc1ccc(-c2ccc(OCc3nnn[nH]3)cc2)cc1 [Compound 14, 2-Butyl-N-[4′-(1H-tetraazol-5-ylmethoxy)[1,1′-biphenyl]-4-yl]-1-benzofuran-3-carboxamide]",210 to 212 °C,29%,62%,,
"CCCCc1oc2ccccc2c1C(=O)Nc1ccc(-c2cccc(OC(Cc3ccccc3)C(=O)O)c2)cc1 (stereo not shown) [Compound 41, 2-[(4′-{[(2-butyl-1-benzofuran-3-yl)carbonyl]amino}-1,1′-biphenyl-3-yl)oxy]-3-phenylpropanoic acid]",,30%,95%,,9.1 µM
"O=C(Nc1ccc(-c2cccc(OC(Cc3ccccc3)C(=O)O)c2)cc1)c1cc(-c2ccc(-c3ccccc3)cc2)oc1C(F)(F)F (stereo not shown) [Compound 42, 2-[(4′-{[5-(1,1′-biphenyl-4-yl)-2-(trifluoromethyl)-3-furoyl]amino}-1,1′-biphenyl-3-yl)oxy]-3-phenylpropanoic acid]",,35%,57%,,18.6 µM
"O=C(Nc1ccc(-c2cccc(OC(Cc3ccccc3)C(=O)O)c2)cc1)c1cc(-c2ccc(C(F)(F)F)cc2)oc1C(F)(F)F (stereo not shown) [Compound 43, 3-phenyl-2-{[4′-({2-(trifluoromethyl)-5-[4-(trifluoromethyl)phenyl]-3-furoyl}amino)-1,1′-biphenyl-3-yl]oxy}propanoic acid]",,26%,88%,,12 µM
"Cc1nn(Cc2ccc(C(=O)Nc3ccc(-c4cccc(OC(Cc5ccccc5)C(=O)O)c4)cc3)o2)c(C)c1Br (stereo not shown) [Compound 44, 2-{[4′-({5-[(4-bromo-3,5-dimethyl-1H-pyrazol-1-yl)methyl]-2-furoyl}amino)-1,1′-biphenyl-3-yl]oxy}-3-phenylpropanoic acid]",,17%,52%,,11.8 µM
"O=C(Nc1ccc(-c2ccc(OC(Cc3ccccc3)C(=O)O)cc2)cc1)c1ccc(Oc2ccccc2)cc1 (stereo not shown) [Compound 45, 2-({4′-[(4-phenoxybenzoyl)amino]-1,1′-biphenyl-4-yl}oxy)-3-phenylpropanoic acid]",,34%,61%,,11.5 µM
"O=C(Nc1ccc(-c2ccc(OC(Cc3ccccc3)C(=O)O)cc2)cc1)c1ccc(-c2ccc(Cl)cc2)s1 (stereo not shown) [Compound 46, 2-{[4′-({[5-(4-chlorophenyl)thien-2-yl]carbonyl}amino)-1,1′-biphenyl-4-yl]oxy}-3-phenylpropanoic acid]",,36%,84%,,5.4 µM
"O=C(O)C(Cc1ccccc1)Oc1ccc(-c2ccc(NC(=O)C3(c4ccc(Cl)cc4)CCC3)cc2)cc1 (stereo not shown) [Compound 47, 2-{[4′-({[1-(4-chlorophenyl)cyclobutyl]carbonyl}amino)-1,1′-biphenyl-4-yl]oxy}-3-phenylpropanoic acid]",,14%,83%,,18.1 µM
"O=C(Nc1ccc(-c2ccc(OC(Cc3ccccc3)C(=O)O)cc2)cc1)c1cc(-c2ccccc2Cl)oc1C(F)(F)F (stereo not shown) [Compound 48, 2-[(4′-{[5-(2-chlorophenyl)-2-(trifluoromethyl)-3-furoyl]amino}-1,1′-biphenyl-4-yl)oxy]-3-phenylpropanoic acid]",,7%,78%,,23.2 µM
"CCCCc1oc2ccccc2c1C(=O)Nc1ccc(-c2ccc(OC(Cc3ccccc3)C(=O)O)cc2)cc1 (stereo not shown) [Compound 49, 2-[(4′-{[(2-butyl-1-benzofuran-3-yl)carbonyl]amino}-1,1′-biphenyl-4-yl)oxy]-3-phenylpropanoic acid]",,25%,90%,,8.71 µM
"O=C(Nc1ccc(-c2ccc(OC(Cc3ccccc3)C(=O)O)cc2)cc1)c1cc(-c2ccc(C(F)(F)F)cc2)oc1C(F)(F)F (stereo not shown) [Compound 50, 3-phenyl-2-{[4′-({2-(trifluoromethyl)-5-[4-(trifluoromethyl)phenyl]-3-furoyl}amino)-1,1′-biphenyl-4-yl]oxy}propanoic acid]",,27%,95%,,18.7 µM
